{"source": "paper PMC6544628", "about": "“Plasmodium pseudo-Tyrosine Kinase-like binds PP1 and SERA5 and is exported to host erythrocytes” (Scientific Reports, 2019)", "biological_target": "T1, pTKL_KD_WT (PfpTKL kinase domain) (Plasmodium falciparum, UniProt Q8IIT5)", "T1 construct": "gene pTKL", "T1 sequence (Q8IIT5 1098-1501)": "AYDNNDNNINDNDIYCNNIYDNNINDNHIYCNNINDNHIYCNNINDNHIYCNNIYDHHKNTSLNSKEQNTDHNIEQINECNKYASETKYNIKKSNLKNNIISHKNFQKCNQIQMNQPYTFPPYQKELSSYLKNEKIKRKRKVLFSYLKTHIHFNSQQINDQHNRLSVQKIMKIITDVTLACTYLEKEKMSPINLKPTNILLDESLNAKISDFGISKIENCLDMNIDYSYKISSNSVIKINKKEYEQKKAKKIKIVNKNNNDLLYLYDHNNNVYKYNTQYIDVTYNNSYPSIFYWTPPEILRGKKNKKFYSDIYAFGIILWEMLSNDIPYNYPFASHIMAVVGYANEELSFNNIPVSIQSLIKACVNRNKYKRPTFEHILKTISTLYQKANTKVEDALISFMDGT", "settings": "labelled compound (ATP immobilised on agarose); protein dialyzed against PBS with 1 mM DTT and 1 mM EDTA"}
{"smiles": "Nc1ncnc2c1ncn2[C@@H]1O[C@H](COP(=O)(O)OP(=O)(O)OP(=O)(O)O)[C@@H](O)[C@H]1O", "note": "[ATP]", "values": [{"measurement": "ATP-agarose bead pull-down, anti-His6 western blot", "result": "The PfpTKL pseudo-KD was able to bind ATP but did not display any kinase activity"}]}
